{"source": "patent US20070161636A1", "about": "“Method of analyzing physiological function of target substance” (priority 2003, published 2007)", "origin": "cited, not measured here", "note": "Like-named read-outs stand apart in the source and are kept apart here.", "data": [{"compound": "O=C1OC2(c3ccccc31)c1cc(Br)c(O)c(Br)c1Oc1c2cc(Br)c(O)c1Br", "note": "[eosin, tetrabromofluorescein]", "values": [{"measurement": "maximum absorption (max λ)", "setting": "in ethanol", "result": 523, "unit": "nm"}, {"measurement": "maximum absorption (max λ)", "setting": "in water", "result": 517, "unit": "nm"}]}]}
